The values below come from patent US20180327367A1, “MACROCYCLIC BROAD SPECTRUM ANTIBIOTICS” (priority 2015, published 2018).

In brackets after ≈: the same amount, converted by molar mass. Read-outs that look alike come from different tables or passages of the source.

The subject of test [1] is Methicillin Resistant Staphylococcus aureus strain USA 300, NRS384. Description: Minimum inhibitory concentration, broth micro-dilution (CLSI), S. aureus. As to conditions: Staphylococcus aureus, MRSA / NRS 384 / USA300, 22 h, 35° C., 22 hours. It counts as cell-based. The essentials: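 Colonies grown 20 hours at 35° C were suspended in cation-adjusted Mueller Hinton Broth with 0.002% Tween-80. Cells were then added to 2-fold compound dilutions starting at 4 or 0.5 μg/mL, at OD600 0.0005.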
(In general: Broth dilution looks for growth in wells or tubes with falling amounts of substance.)

Test [2] deals with Escherichia coli MC4100 harboring the IMP4213 (E. coli IMP). Description: microbe, parasite or virus in culture. In kind it is cell-based. As to conditions: Escherichia coli, 22 h, read-out: MIC (μg/mL) E. coli IMP, E. coli MC4100 IMP4213, increased outer-membrane permeability; 35° C., 22 hours. In short, it runs like this:
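Broth micro-dilution per CLSI in cation-adjusted Mueller Hinton Broth with 0.002% Tween-80; E. coli MC4100 carries IMP4213, raising outer-membrane permeability. Compounds tested as 2-fold serial dilutions (10 concentrations) from 4 μg/mL (protocol 2) or 0.5 μg/mL (protocol 3); inoculum OD600 0.0005, 35° C for 22 hours.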

Test [3] relates to Escherichia coli ATCC 25922. As to the kind of experiment: Minimum inhibitory concentration, broth micro-dilution (CLSI), E. coli. In kind it is cell-based. As to conditions: Escherichia coli, ATCC25922, 22 h, 35° C., 22 hours.
The target of test [4] is T1, SpsB (Staphylococcus aureus signal peptidase) (Staphylococcus aureus, UniProt P0A070).
T1 construct: This assay uses a suspension of Staphylococcus aureus cells as a source of SpsB instead of recombinant SpsB protein; endogenous in cells; host or cells: S. aureus, USA300 background, overexpressing SpsB (whole-cell suspension from frozen pellets)
Description: cell-based. In kind it is biochemical. As to conditions: SpsB IC50, whole-cell S. aureus (USA300 background, overexpressing SpsB) as SpsB source; fluorogenic peptide substrate, kinetic read 30 min. In short, it runs like this:
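Whole S. aureus cells (USA300, overexpressing SpsB) in PBS with MgCl2, CaCl2 and 0.1% Tween-80 served as enzyme source, mixed with 20 μM stock of (Dabcyl)βAla-KPAKAAE(Edans) substrate before use. Fluorescence (ex 340/em 490 nm) read kinetically over 30 min. IC50 from reaction rate versus 11-point inhibitor concentration.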

[5] abbreviates: read-out: MIC (μg/mL) S. aureus, MRSA USA 300 NRS384.
The mark [6] stands for this setting: read-out: MIC (μg/mL) E. coli, E. coli ATCC 25922.
[7] abbreviates: MRSA USA 300 NRS384, read-out: MIC (μg/mL) S. aureus.
The mark [8] stands for this setting: E. coli ATCC 25922, read-out: MIC (μg/mL) E. coli.

T1 sequence (P0A070 whole entry): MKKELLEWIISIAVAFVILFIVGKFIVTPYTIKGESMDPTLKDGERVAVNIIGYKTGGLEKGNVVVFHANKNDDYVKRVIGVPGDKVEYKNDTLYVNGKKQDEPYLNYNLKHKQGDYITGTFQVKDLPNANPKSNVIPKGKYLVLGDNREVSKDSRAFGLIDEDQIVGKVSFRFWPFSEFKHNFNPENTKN

By IC50 is commonly meant the concentration that gives 50% inhibition. A lower IC50 goes with inhibition by little substance. Consider `CCCCCCCCS(=O)(=O)N[C@@H](CO)C(=O)N(C)[C@@H]1C(=O)N[C@@H](C)C(=O)N[C@H](C(=O)NCC#N)Cc2ccc(OCCN)c(c2)-c2cc1ccc2OCCN` [Compound 345], for which the MIC in test [1] (setting [5]) was 0.5 µg/mL (≈ 0.624 µM); in test [2] it was 2 µg/mL (≈ 2.5 µM); in test [3] (setting [6]), over 64 µg/mL. The 50% inhibitory concentration (IC50) in test [4] worked out at 2.2 nM.
In the case of `CCCCCCCCCCNCCC(=O)N[C@@H](CCCCN)C(=O)N(C)[C@@H]1C(=O)N[C@@H](C)C(=O)N[C@H](C(=O)NCC#N)Cc2ccc(O)c(c2)-c2cc1ccc2OCCN` [Compound 320], the MIC in test [1] (setting [7]) was 0.13 µg/mL (≈ 0.156 µM); in test [2] it was 2 µg/mL (≈ 2.4 µM); in test [3] (setting [8]), over 64 µg/mL. In addition, it took 0.97 nM to reach half-maximal inhibition in test [4] (IC50).
For `C[C@@H]1NC(=O)[C@@H](N(C)C(=O)[C@H](CO)NC(=O)c2ccc(-c3ccc(Cl)cc3)cc2)c2ccc(OCCN)c(c2)-c2cc(ccc2OCCN)C[C@@H](C(=O)NCC#N)NC1=O` [Compound 233], the values for the MIC in test [1] (setting [5]), in test [2] and in test [3] (setting [6]) were 0.5 µg/mL (≈ 0.596 µM), 0.13 µg/mL (≈ 0.155 µM) and 32 µg/mL (≈ 38.1 µM), respectively. In addition, inhibition in test [4] was half-maximal at 4 nM (IC50).
The like results for `CCCCc1ccc(-c2ccc(C(=O)N[C@@H](CCCCN)C(=O)N(C)[C@@H]3C(=O)N[C@@H](C)C(=O)N[C@H](C(=O)NCC#N)Cc4ccc(OCCN)c(c4)-c4cc3ccc4OCCN)cc2)cc1` [Compound 331] were, in that order, 0.063 µg/mL (≈ 0.0698 µM), 0.023 µg/mL (≈ 0.0255 µM), 0.69 µg/mL (≈ 0.765 µM) and 0.34 nM.
Consider `CCCCCCCCCCNCCC(=O)N(C)[C@@H]1C(=O)N[C@@H](C)C(=O)N[C@H](C(=O)NCC#N)Cc2ccc(O)c(c2)-c2cc1ccc2OCCN` [Compound 316], for which the MIC in test [1] (setting [7]) is 0.13 µg/mL (≈ 0.184 µM); in test [2], 2 µg/mL (≈ 2.83 µM); in test [3] (setting [8]), over 64 µg/mL. The compound further displayed an IC50 in test [4] of 0.84 nM.
Consider `CCCCc1ccc(C(=O)N[C@@H](CCC)C(=O)N[C@@H](CCN)C(=O)N(C)[C@@H]2C(=O)N[C@@H](C)C(=O)N[C@H](C(=O)NCC#N)Cc3ccc(OCCN)c(c3)-c3cc2ccc3OCCN)c(C)c1` [Compound 355], for which the figures for the MIC in test [1] (setting [5]), in test [2] and in test [3] (setting [6]) were 0.13 µg/mL (≈ 0.143 µM), 0.031 µg/mL (≈ 0.034 µM) and 4 µg/mL (≈ 4.39 µM), respectively. The IC50 in test [4] turned out to be 1.1 nM.
Take `CCCCc1ccc(-c2ccc(C(=O)N[C@@H](CCCCN)C(=O)N(C)[C@@H]3C(=O)N[C@@H](C)C(=O)N[C@H](C(=O)NC4(C#N)CC4)Cc4ccc(O)c(c4)-c4cc3ccc4OCCN)cc2)cc1` [Compound 495]: the figures for the MIC in test [1] (setting [7]), in test [2] and in test [3] (setting [8]) were 3 µg/mL (≈ 3.39 µM), 1 µg/mL (≈ 1.13 µM) and 16 µg/mL (≈ 18.1 µM), respectively. The same compound came in with an IC50 in test [4] of 20 nM.
On the same counts, the results for `Cc1cc(C2CCC2)ccc1C(=O)N[C@@H](CCN)C(=O)N(C)[C@@H]1C(=O)N[C@@H](C)C(=O)N[C@H](C(=O)NCC#N)Cc2ccc(OCCN)c(c2)-c2cc1ccc2OCCN` [Compound 214] are 0.25 µg/mL (≈ 0.309 µM), 0.031 µg/mL (≈ 0.0383 µM), 3 µg/mL (≈ 3.7 µM) and 0.98 nM.
With `C[C@@H]1NC(=O)[C@@H](N(C)C(=O)[C@H](CCCCN)NC(=O)c2ccc(-c3ccc(Cl)cc3)cc2)c2ccc(OCC(O)CN)c(c2)-c2cc(ccc2O)C[C@@H](C(=O)NCC#N)NC1=O` (mixture of isomers) [Compound 514], the MIC in test [1] (setting [5]) turned out to be 0.25 µg/mL; in test [2] it was 0.19 µg/mL; in test [3] (setting [6]), 32 µg/mL. The compound further displayed an IC50 in test [4] of 2 nM.
For `Cc1cc(OCC2(C)CCCCC2)ccc1C(=O)N[C@@H](CCN)C(=O)N(C)[C@@H]1C(=O)N[C@@H](C)C(=O)N[C@H](C(=O)NCC#N)Cc2ccc(OCCN)c(c2)-c2cc1ccc2OCCN` [Compound 289], the MIC in test [1] (setting [7]) was determined as 0.031 µg/mL (≈ 0.0351 µM); in test [2] it was 0.0078 µg/mL (≈ 0.00884 µM); in test [3] (setting [8]) it was 0.25 µg/mL (≈ 0.283 µM). In test [4], this compound returned an IC50 of 0.93 nM.
Take `CCCCCCCCCCCC(=O)N[C@@H](C)C(=O)N(C)[C@@H]1C(=O)N[C@@H](C)C(=O)N[C@H](C(=O)NCC#N)Cc2ccc(OCCN)c(c2)-c2cc1ccc2OCCN` [Compound 241]: the figures for the MIC in test [1] (setting [7]), in test [2] and in test [3] (setting [8]) were 0.13 µg/mL (≈ 0.164 µM), 0.063 µg/mL (≈ 0.0796 µM) and 6 µg/mL (≈ 7.59 µM), respectively. In test [4], this compound displayed a 50% inhibitory concentration (IC50) of 1.4 nM.
On the same counts, the results for `CCCCCCCCc1ccc(C(=O)N[C@@H](CCCN)C(=O)N(C)[C@@H]2C(=O)N[C@@H](C)C(=O)N[C@H](C(=O)NCC#N)Cc3ccc(OC)c(c3)-c3cc2ccc3OC)c(OC)c1` [Compound 473] are 1.5 µg/mL (≈ 1.79 µM), 0.25 µg/mL (≈ 0.298 µM), over 64 µg/mL and 39 nM.
